Measurements from PubChem BioAssay (NCI).
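Values below derive from 48-hour exposures of cells grown in 96-well plates, with endpoints linearly interpolated between the two concentrations bracketing the appropriate inhibition level. TGI marks complete inhibition of growth.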

Key:
Test in all cases: DTP human tumour cell line panel, 48 h
SK-OV-3 ovarian = tested on: SK-OV-3 ovarian
IGROV1 ovarian = tested on: IGROV1 ovarian
SK-MEL-5 melanoma = tested on: SK-MEL-5 melanoma
SF-539 CNS = tested on: SF-539 CNS
K-562 leukemia = tested on: K-562 leukemia
786-0 renal = tested on: 786-0 renal
OVCAR-3 ovarian = tested on: OVCAR-3 ovarian
SF-268 CNS = tested on: SF-268 CNS
SK-MEL-2 melanoma = tested on: SK-MEL-2 melanoma
MALME-3M melanoma = tested on: MALME-3M melanoma
SN12C renal = tested on: SN12C renal
OVCAR-8 ovarian = tested on: OVCAR-8 ovarian

Compound	TGI (SK-OV-3 ovarian)	TGI (IGROV1 ovarian)	TGI (SK-MEL-5 melanoma)	TGI (SF-539 CNS)	TGI (K-562 leukemia)	TGI (786-0 renal)	TGI (OVCAR-3 ovarian)	TGI (SF-268 CNS)	TGI (SK-MEL-2 melanoma)	TGI (MALME-3M melanoma)	TGI (SN12C renal)	TGI (OVCAR-8 ovarian)
CCOC(=O)/C=C(\C(=O)OCC)n1cc(C)c(=O)n(Cc2cnnn2CCCCOC(C)=O)c1=O	> 92.4 µM	28.1 µM	> 52.2 µM	5.66 µM	> 35.9 µM	28 µM	39.1 µM	54.1 µM	53 µM	3.79 µM	39.3 µM	15.6 µM
Oc1cc(C2OCCCO2)cc(O)c1O	> 100 µM	> 100 µM	> 100 µM	> 100 µM	> 100 µM	> 100 µM	> 100 µM	> 100 µM	> 100 µM	> 100 µM	> 100 µM	> 100 µM
C[C@H](N)C(=O)Nc1ccc(-c2nc3ccccc3s2)cc1	57.2 µM	40.4 µM	43 µM	52.3 µM	37.6 µM	29.1 µM	36.9 µM	> 100 µM	99.4 µM	39.5 µM	56 µM	66.8 µM
CN(NC(=O)c1cccs1)C1=NCCCN1	> 100 µM	> 100 µM	> 100 µM	> 100 µM	> 100 µM	> 100 µM	> 100 µM	> 100 µM	> 100 µM	> 100 µM	–	> 100 µM
CC(=O)O[C@H]1C#C/C=C\C#CC[C@@H]2C(=O)N[C@@H]12	> 100 µM	> 100 µM	> 100 µM	5.39 µM	> 100 µM	> 88.3 µM	> 100 µM	> 70.2 µM	> 100 µM	> 100 µM	> 80.4 µM	73.1 µM
Cc1ccc(/C(O)=C/C(=O)C(=O)/C=C(\O)c2ccc(C)cc2C)c(C)c1	3.47 µM	4.42 µM	3.26 µM	3.56 µM	9.58 µM	4.28 µM	3.51 µM	4.02 µM	3.65 µM	3.45 µM	4.88 µM	7.63 µM
CC(=O)OC1CC2C(C)(C)OC(=O)CC(OC(C)=O)[C@]2(C)C2CCC3(C)C(=CCC3[C@H]3COC(=O)C3)[C@]12C (stereo partly drawn)	> 100 µM	> 100 µM	> 100 µM	> 100 µM	> 100 µM	> 100 µM	> 100 µM	> 100 µM	> 100 µM	> 100 µM	> 100 µM	> 100 µM
Nc1cccc(Nc2nc3ccccc3nc2NS(=O)(=O)c2ccccc2)c1	> 100 µM	86.9 µM	29.8 µM	45.3 µM	76.3 µM	> 100 µM	47.3 µM	> 100 µM	31.3 µM	72.7 µM	> 100 µM	> 100 µM
C/C=C/C(O)P1(=O)N(Cc2ccccc2)[C@@H]2CCCC[C@H]2N1Cc1ccccc1 (stereo partly drawn)	> 25 µM	> 25 µM	> 25 µM	> 25 µM	> 25 µM	> 25 µM	> 25 µM	> 25 µM	> 25 µM	> 25 µM	> 25 µM	> 25 µM
O=c1c2ncn(COCCCl)c2n(-c2ccccc2)c(=S)n1-c1ccccc1	> 100 µM	> 100 µM	> 100 µM	> 100 µM	> 100 µM	> 100 µM	> 100 µM	> 100 µM	> 100 µM	> 100 µM	> 100 µM	> 100 µM
CCC1(C(=O)OC(C)(C)C)OC12C(C)CCCC2C (stereo not drawn)	> 100 µM	> 100 µM	> 100 µM	> 100 µM	52.8 µM	> 100 µM	> 100 µM	> 100 µM	> 100 µM	> 100 µM	> 100 µM	> 100 µM
O=C1CCCCC(=O)OC2(CCCCC2=O)CC1 (stereo not drawn)	> 100 µM	> 100 µM	> 100 µM	> 100 µM	> 100 µM	> 100 µM	> 100 µM	> 100 µM	> 100 µM	> 100 µM	> 100 µM	> 100 µM
C=C1C(=O)CC2C(=O)C(C)(O)CC/C=C(\C)C(=O)CC12 (stereo not drawn)	> 100 µM	37.5 µM	35.6 µM	59.8 µM	> 44.1 µM	35.6 µM	59 µM	> 76.1 µM	> 82.9 µM	27.1 µM	29.5 µM	> 63.6 µM
COc1cc(C2SCC(=O)N2c2ccc(-c3ccc(-n4c(-c5ccccc5)nc5ccccc5c4=O)cc3)cc2)cc(OC)c1OC (stereo not drawn)	> 100 µM	> 100 µM	> 100 µM	> 100 µM	> 100 µM	47.6 µM	80.9 µM	> 100 µM	56.5 µM	> 100 µM	> 100 µM	> 100 µM
CC1Cn2c(nc3ccccc32)NC1=O (stereo not drawn)	> 100 µM	> 100 µM	> 100 µM	> 100 µM	> 100 µM	> 100 µM	> 100 µM	> 100 µM	> 100 µM	> 100 µM	–	> 100 µM
OCC1OC(n2cnc3c(Cl)nc(Nc4ccccc4)nc32)CC1O (stereo not drawn)	> 100 µM	66.8 µM	> 100 µM	> 100 µM	> 100 µM	> 100 µM	> 100 µM	> 100 µM	> 100 µM	37.8 µM	> 100 µM	> 100 µM
Cc1ccc(-c2cc(N)n(-c3nc4c(c(=O)n(C)c(=O)n4C)n3C)n2)cc1	> 100 µM	> 100 µM	> 100 µM	> 100 µM	> 100 µM	> 100 µM	> 100 µM	> 100 µM	> 100 µM	> 100 µM	> 100 µM	> 100 µM
O=c1[nH]/c(=C/c2ccc(OCc3ccccc3)cn2)c(=O)[nH]/c1=C/c1ccc(O)cc1	> 100 µM	13.4 µM	20.8 µM	2.09 µM	> 100 µM	1.45 µM	> 76.3 µM	–	> 46 µM	8.67 µM	8.9 µM	> 32.4 µM
